According to patent publication US20260373266A1, “PROTEIN DEGRADERS AND USES THEREOF” (KYMERA THERAPEUTICS, INC., priority 2022, published 2026):

Molecular target: T1, DCAF1 WD40 domain (residues 1077-1390) (Homo sapiens, UniProt Q9Y4B6)
T1 construct: DCAF1 WD40 domain (residues 1077-1390)
Assay: DCAF1 binding assay by SPR (Biacore 8K+), DCAF1-3 KD
Settings: 25 °C, read-out: DCAF1-3 SPR (KD)

T1 sequence (Q9Y4B6 1077-1390): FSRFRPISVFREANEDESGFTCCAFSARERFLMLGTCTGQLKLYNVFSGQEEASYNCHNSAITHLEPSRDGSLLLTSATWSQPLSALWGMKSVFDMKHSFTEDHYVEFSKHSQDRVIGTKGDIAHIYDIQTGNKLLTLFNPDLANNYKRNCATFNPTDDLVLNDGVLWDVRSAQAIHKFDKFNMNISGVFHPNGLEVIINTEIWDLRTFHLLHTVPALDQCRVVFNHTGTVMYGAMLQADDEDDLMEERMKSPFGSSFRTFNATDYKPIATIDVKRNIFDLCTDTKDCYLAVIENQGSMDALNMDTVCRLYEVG

Row | SMILES | Kd
1 | Fc1cccc(N2CCCC(Nc3nccc(N4CCOCC4)n3)C2)c1 (stereo not drawn) [I-22] | > 200 µM
2 | COC(=O)c1ccc(F)c(-c2n[nH]cc2C(=O)N[C@@H](CC(N)=O)c2cccc(Cl)c2)c1 [I-270] | > 200 µM
3 | NC(=O)C[C@H](NC(=O)c1cnn(CCc2ccccc2)c1-c1ccccc1F)c1cccc(Cl)c1 [I-170] | > 200 µM
4 | NCCNc1cnc(N2CCCCC2)nc1N[C@@H]1CCCN(c2cccc(F)c2)C1 [I-1014] | 10 to 100 µM
5 | Fc1cccc(N2CCC[C@@H](Nc3cc(N4C[C@H]5CCC4CO5)ncn3)C2)c1 [I-309] | > 200 µM
6 | Fc1cccc(N2CCC[C@@H](Nc3ncc(N4CCOCC4)s3)C2)c1 [I-328] | > 200 µM
7 | Fc1cccc(N2C[C@H](Nc3cc(N4CCOCC4)ncn3)C3CC[C@H]2C3)c1 [I-383] | > 200 µM
8 | C=C1CCCN(c2ccnc(N[C@@H]3CCCN(c4cccc(F)c4)C3)c2)C1=O [I-461] | > 200 µM
9 | NC(=O)C[C@@]1(NC(=O)c2c[nH]nc2-c2ccccc2F)CCCc2ccc(Cl)cc21 [I-243] | > 200 µM
10 | NC(=O)C[C@H](NC(=O)c1cn[nH]c1-c1ccc(C(N)=O)cc1)c1cccc(Cl)c1 [I-351] | 10 to 100 µM
11 | CCOC(=O)Cc1ccncc1N1CCC[C@@H](Nc2cc(N3CCOCC3)ccn2)C1 [I-766] | 10 to 100 µM
12 | N#CCCN(c1cc(N2CCOCC2)ccn1)[C@@H]1CCCN(c2cccc(F)c2)C1 [I-289] | > 200 µM
13 | Cc1sc2c(c1C)C(c1ccc(Cl)cc1)=N[C@@H](CC(=O)NCCCCCCCCCCCCC(=O)c1[nH]cc(C(=O)C[C@@H](CC(N)=O)c3cccc(Cl)c3)c1-c1ccccc1F)c1nnc(C)n1-2 [I-892] | > 200 µM
14 | c1ccc2nc(N3CCC[C@@H](Nc4nccc(N5CCOCC5)n4)C3)ccc2c1 [I-37] | > 200 µM
15 | OCCCCCCCCC1CCN(c2ccnc(N3CC[C@@H]4[C@H]3CCCN4c3cccc(F)c3)c2)CC1 [I-977] | 10 to 100 µM
16 | Oc1ccc(N2CCC[C@@H]3[C@H]2CCN3c2cc(N3CC4CC(C4)C3)ccn2)cc1 [I-709] | 10 to 100 µM
17 | OCCC[C@@H]1C[C@H]2[C@H](CCCN2c2cccc(F)c2)N1c1cc(N2CCCCC2)ccn1 [I-830] | 10 to 100 µM
18 | Fc1cccc(N2CCC3CCCc4ncc(N5CCOCC5)cc4N[C@H]3C2)c1 (stereo partly drawn) [I-227] | > 200 µM
19 | O[C@@H](c1cccc(N2CCC[C@@H](Nc3cc(N4CCOCC4)ccn3)C2)c1)C(F)(F)F [I-772] | 10 to 100 µM
20 | Fc1cccc(N2CCC[C@@H]3[C@H]2CCCN3c2cc(N3CCOCC3)ccn2)c1 [I-190] | > 200 µM
21 | NC(=O)C[C@H](NC(=O)c1ccc(-c2nc(C3CC3)n[nH]2)cc1)c1cccc(Cl)c1 [I-439] | > 200 µM
22 | Fc1cccc(N2CCC[C@@H](Cc3cc(N4CCOCC4)[nH]n3)C2)c1 [I-631] | > 200 µM
23 | Cc1ncc(N2CCOCC2)cc1N[C@@H]1CCCN(c2cccc(F)c2)C1 [I-527] | > 200 µM
24 | NC(=O)C[C@H](NC(=O)c1cnn(CC2CC2)c1-c1ccccc1F)c1cccc(Cl)c1 [I-133] | 10 to 100 µM
25 | c1cc(N2CCCCC2)cc(N[C@@H]2CCC[C@H](C3CCCCC3)C2)n1 [I-751] | > 200 µM
26 | Nc1ccc(N[C@@H]2CCCN(c3cccc(F)c3)C2)cc1C1CCCCC1 [I-930] | 10 to 100 µM

Row | SMILES | Kd
27 | OCc1cnc2ccc(N3CCC[C@@H](Nc4cc(N5CCCCC5)ccn4)C3)nn12 [I-760] | > 200 µM
28 | CN(C)c1ccnc(N[C@@H]2CCCN(c3cccc(F)c3)C2)c1 [I-498] | 10 to 100 µM
29 | Cc1c(F)ccc(F)c1-c1[nH]ncc1C(=O)N[C@H](c1cccc(Cl)c1)C1CCCS1(=O)=O (stereo partly drawn) [I-999] | 10 to 100 µM
30 | c1cc(N2CCOCC2)cc(N[C@@H]2CCCN(c3ccc(C4CC4)cc3)C2)n1 [I-507] | > 200 µM
31 | c1cnc2ccc(N3CCC[C@@H](Nc4cc(N5CCOCC5)ncn4)C3)cc2c1 [I-400] | > 200 µM
32 | Fc1cccc(N2CCC[C@@H](N(CC3CC3)c3nccc(N4CCOCC4)n3)C2)c1 [I-41] | 100 to 200 µM
33 | NS(=O)(=O)[C@@H]1[C@H](Nc2cc(N3CCOCC3)ccn2)CCCN1c1cccc(F)c1 [I-283] | > 200 µM
34 | CN(c1ccnc(N[C@@H]2CCCN(c3cccc(F)c3)C2)c1)C1CCCC1 [I-555] | 10 to 100 µM
35 | Oc1cc(N[C@@H]2CCCN(c3cccc(F)c3)C2)cc(N2CCOCC2)c1 [I-564] | 10 to 100 µM
36 | OCCc1ccc(N2CCC[C@@H](Nc3cc(N4CCOCC4)ccn3)C2)cc1 [I-860] | > 200 µM
37 | NC[C@@H]1C[C@@H](Nc2cc(N3CCCCC3)ccn2)CN(c2cccc(F)c2)C1 [I-1040] | 10 to 100 µM
38 | O=S1(=O)[C@H](Nc2cc(N3CCOCC3)ccn2)CCCN1c1cccc(F)c1 [I-282] | > 200 µM
39 | Fc1cc2ccccc2c(N2CCC[C@@H](Nc3cc(N4CCOCC4)ccn3)C2)n1 [I-72] | 100 to 200 µM
40 | NC(=O)C[C@H](NC(=O)c1cn[nH]c1-c1cnsc1)c1cccc(Cl)c1 [I-158] | 10 to 100 µM
41 | Cc1ccc(CCCOCCOCCOCCOCCOCCNC(=O)C[C@@H]2N=C(c3ccc(Cl)cc3)c3c(sc(C)c3C)-n3c(C)nnc32)c(F)c1-c1c(C(=O)N[C@@H](CC(N)=O)c2cccc(Cl)c2)c[nH]c1C#N [I-1052] | 10 to 100 µM
42 | NC(=O)C[C@H](NC(=O)c1cnn(Cc2ccncn2)c1-c1ccccc1F)c1cccc(Cl)c1 [I-154] | > 200 µM
43 | NCCCc1cccc(N2CCC[C@@H](Nc3cc(N4CCOCC4)ccn3)C2)c1 [I-867] | 10 to 100 µM
44 | C=CC(=O)N1C[C@H](c2ccc(Br)cc2)[C@@H]1C(=O)Nc1cccc2cccnc12 [I-517] | > 200 µM
45 | c1ccc2c(N3CCC[C@@H](Nc4cc(N5CCOCC5)ncn4)C3)cncc2c1 [I-391] | > 200 µM
46 | c1cc(N2CCOCC2)cc(N[C@@H]2CCCN(c3ccc4c(c3)CCC4)C2)n1 [I-508] | 100 to 200 µM
47 | CCC(=O)N1C[C@H](c2ccc(Br)cc2)[C@@H]1C(=O)Nc1cccc2cccnc12 [I-518] | > 200 µM
48 | O=C1NCCN1Cc1cccc(N2CCC[C@@H]3[C@H]2CCN3c2cc(N3CCCCC3)ccn2)c1 [I-959] | 10 to 100 µM
49 | NC(=O)C[C@H](NC(=O)c1c[nH]nc1-c1ccc2[nH]cnc2c1)c1cccc(Cl)c1 [I-356] | 10 to 100 µM
50 | CCCCCCC[C@@H]1CCCN(c2ccnc(N3CC[C@H]4[C@@H]3CCCN4c3cccc(F)c3)c2)C1 [I-728] | 10 to 100 µM
51 | Fc1cccc(N2CCC[C@H](Nc3cc(N4CCOCC4)ncn3)C2)c1 [I-313] | > 200 µM
52 | CCCn1cc(N2CCC[C@@H](Nc3cc(N4CCOCC4)ccn3)C2)cn1 [I-694] | > 200 µM

Results, then the compound that gave them:

Row | Kd | SMILES
53 | 10 to 100 µM | Cc1cccc(-c2[nH]ncc2C(=O)N[C@@H](CC(N)=O)c2cccc(Cl)c2)c1F [I-515]
54 | < 10 µM | C[C@H]1CCCCN1c1ccnc(N[C@@H]2CCCN(c3cccc(F)c3)C2)c1 [I-569]
55 | < 10 µM | COCCOCC[C@H]1CCCN(c2ccnc(N3CC[C@H]4[C@@H]3CCCN4c3cccc(F)c3)c2)C1 [I-715]
56 | < 10 µM | Fc1cccc(N2CCCC(N3CCc4c(N5CCCCC5)ccnc43)C2)c1 (stereo not drawn) [I-789]
57 | < 10 µM | Cc1c(F)ccc(F)c1-c1c(C(=O)N[C@@H](CC(N)=O)c2cccc(Cl)c2)c[nH]c1C(=O)COCCOCCOCCOCCOCCOCCN [I-802]
58 | < 10 µM | CC1=C(c2[nH]ncc2C(=O)N[C@@H](CC(N)=O)c2cccc(Cl)c2)CCCC1 [I-610]
59 | < 10 µM | Cc1sc2c(c1C)C(c1ccc(Cl)cc1)=N[C@@H](CC(=O)NCCOCCOCCOCCOCCOCC(=O)c1[nH]cc(C(=O)N[C@@H](CC(=O)N(C)C)c3cccc(Cl)c3)c1-c1c(F)ccc(F)c1C)c1nnc(C)n1-2 [I-911]
60 | < 10 µM | Cc1c(F)ccc(F)c1-c1[nH]ncc1C(=O)N[C@@H](c1cccc(Cl)c1)[C@H]1CCCS1(=O)=O [I-1000]
61 | < 10 µM | CC1CC=C(c2[nH]ncc2C(=O)N[C@@H](CC(N)=O)c2cccc(Cl)c2)CC1 (stereo partly drawn) [I-611]
62 | < 10 µM | NC(=O)CC(NC(=O)c1cn[nH]c1-c1c(F)cc(Cl)cc1F)c1ccc(F)c(Cl)c1 (stereo not drawn) [I-1049]
63 | < 10 µM | NC(=O)CCc1cccc(N2CCC[C@H]3[C@@H]2CCN3c2cc(N3CCCCC3)ccn2)c1 [I-881]
64 | < 10 µM | Cc1c(F)ccc(F)c1-c1[nH]ncc1C(=O)N[C@H](CC(N)=O)c1ccc(F)c(Cl)c1 [I-818]
65 | < 10 µM | Oc1ccc(N2CCC[C@H]3[C@@H]2CCN3c2cc(N3CC4CC(C4)C3)ccn2)cc1 [I-718]
66 | < 10 µM | Cc1cccc(F)c1-c1[nH]ncc1C(=O)N[C@H](CC(N)=O)c1cc(Cl)cc(Cl)c1 [I-736]
67 | < 10 µM | Cc1c(F)ccc(F)c1-c1c(C(=O)N[C@@H](CC(N)=O)c2cccc(Cl)c2)cn(C)c1C(=O)c1ccc(OCCOCCOCCOCCOCCOCCOCCN)cc1 [I-1015]
68 | < 10 µM | NC(=O)CCc1cc(N2CCC[C@H]3[C@@H]2CCN3c2cc(N3CCCCC3)ccn2)ccc1F [I-874]
69 | < 10 µM | Cc1c(F)ccc(F)c1-c1[nH]ncc1C(=O)N[C@@H](CC(=O)N1CC(N(C)C)C1)c1cccc(Cl)c1 [I-878]
70 | < 10 µM | Cc1c(F)ccc(F)c1-c1[nH]ncc1C(=O)N[C@@H](CC(=O)N1CCOCC1)c1cccc(Cl)c1 [I-842]
71 | < 10 µM | Cc1sc2c(c1C)C(c1ccc(Cl)cc1)=N[C@@H](CC(=O)NCCOCCOCCOCCCc1ccc(C(=O)c3[nH]cc(C(=O)N[C@@H](CC(N)=O)c4cccc(Cl)c4)c3-c3c(F)ccc(F)c3C)cc1)c1nnc(C)n1-2 [I-908]
72 | < 10 µM | Cc1nc(Nc2ncc(C(=O)Nc3c(C)cccc3Cl)s2)cc(N2CCC(OC3CCN(CCCCCCCC(=O)N4CCN(c5ccc6c(NCCN)nc(C7(c8ccc(Cl)cc8)CCCCC7)nc6c5)CC4)CC3)CC2)n1 [I-1053]
73 | < 10 µM | Cc1c(F)ccc(F)c1-c1c(C(=O)N[C@@H](CC(N)=O)c2cccc(Cl)c2)c[nH]c1S(C)(=O)=O [I-882]
74 | < 10 µM | C#Cc1cccc(F)c1-c1[nH]ncc1C(=O)N[C@@H](CC(N)=O)c1cccc(Cl)c1 [I-591]
75 | < 10 µM | Cc1ccc(F)c(C)c1-c1c(C(=O)N[C@@H](CC(N)=O)c2cccc(Cl)c2)c[nH]c1C(=O)COCCOCCOCCOCCOCCNC(=O)C[C@@H]1N=C(c2ccc(Cl)cc2)c2c(sc(C)c2C)-n2c(C)nnc21 [I-909]
76 | < 10 µM | Cc1cccc(F)c1-c1c(C(=O)N[C@@H](CC(N)=O)c2cccc(Cl)c2)c[nH]c1C(=O)C1CCCCC1 [I-606]
77 | < 10 µM | N#Cc1ccccc1-c1[nH]ncc1C(=O)N[C@@H](CC(N)=O)c1cccc(Cl)c1 [I-338]
78 | < 10 µM | COCCC(=O)c1c(-c2c(F)ccc(F)c2C)c(C(=O)N[C@@H](CC(N)=O)c2cccc(Cl)c2)cn1C [I-973]
